The values below come from patent US9770481B2, “Inhibitors of NOX1” (UNIVERSITY OF PITTSBURGH—OF THE COMMONWEALTH SYSTEM OF …, priority 2011, dated 2017).

The target of one assay is T1, Nox1 (Homo sapiens, UniProt Q9Y5S8).
T1 construct: expressed in transfected cells; host or cells: COS22 (monkey kidney COS cells stably expressing human p22phox)
T1 sequence (Q9Y5S8 1-564): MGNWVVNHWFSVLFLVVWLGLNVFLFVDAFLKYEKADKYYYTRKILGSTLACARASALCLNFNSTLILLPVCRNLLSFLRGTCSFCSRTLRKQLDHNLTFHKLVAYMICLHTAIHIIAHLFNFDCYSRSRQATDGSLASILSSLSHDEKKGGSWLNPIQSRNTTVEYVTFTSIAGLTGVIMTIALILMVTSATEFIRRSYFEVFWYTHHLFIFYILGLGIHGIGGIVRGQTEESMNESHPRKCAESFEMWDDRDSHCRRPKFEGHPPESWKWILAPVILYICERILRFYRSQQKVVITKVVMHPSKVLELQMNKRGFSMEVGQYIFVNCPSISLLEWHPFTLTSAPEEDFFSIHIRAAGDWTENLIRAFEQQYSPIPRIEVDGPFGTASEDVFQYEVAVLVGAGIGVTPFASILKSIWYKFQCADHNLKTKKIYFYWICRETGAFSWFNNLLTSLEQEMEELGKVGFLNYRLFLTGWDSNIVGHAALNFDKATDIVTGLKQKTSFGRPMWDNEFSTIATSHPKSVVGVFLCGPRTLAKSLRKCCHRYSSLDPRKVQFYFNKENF
T1 sequence (P13498 1-195 partner): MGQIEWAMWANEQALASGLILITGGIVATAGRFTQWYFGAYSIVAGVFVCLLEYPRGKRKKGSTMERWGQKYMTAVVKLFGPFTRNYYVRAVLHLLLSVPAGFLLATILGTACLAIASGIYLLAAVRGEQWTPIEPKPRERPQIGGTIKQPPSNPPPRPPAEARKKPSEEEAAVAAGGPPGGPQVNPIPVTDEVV
Put plainly: O2- production by COS22 cells transfected with Nox1 (cytochrome c reduction). The assay is classed as cell-based. Particulars: increasing concentrations. The protocol: Experiments were performed to test the effect of NoxA1ds on O2^− production by Nox1. COS22 is a monkey kidney COST cell line expressing transgenic human p22phox and was produced by stable transfection of the full-length p22phox cDNA into parental COST wild-type cells. COS22 cells were transfected with Nox1 to express the Nox1 enzyme and were then treated with either NoxA1ds or its scrambled control (SCRMB). Production of O2^− was calculated by monitoring the reduction of cytochrome c for 15 minutes post NADPH addition and subtracting baseline cytochrome c reduction occurring in the presence of SOD.

Assay [1] deals with T2, interaction between Nox1 and NoxA1 (Homo sapiens, UniProt Q9Y5S8).
T2 construct: expressed in transfected cells; host or cells: COS22
T2 sequence (Q9Y5S8 1-564): T1 sequence (Q9Y5S8 1-564)
T2 sequence (P13498 2-195 partner limits assumed): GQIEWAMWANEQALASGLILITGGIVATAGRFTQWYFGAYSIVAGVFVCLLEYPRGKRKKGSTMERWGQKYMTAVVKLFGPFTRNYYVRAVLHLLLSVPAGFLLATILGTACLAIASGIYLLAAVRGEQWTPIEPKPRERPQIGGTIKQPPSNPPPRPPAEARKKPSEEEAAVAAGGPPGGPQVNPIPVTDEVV
As to the kind of experiment: FRET between Nox1-YFP and NoxA1-CFP in transfected COS22 cells. Particulars: 10 μM, one hour prior to imaging. The assay is classed as cell-based. The protocol: FRET (fluorescence resonance energy transfer) studies were performed to study the effect of NoxA1ds on the interaction between Nox1 and NoxA1: In particular, FRET between Nox1-YFP and NoxA1-CFP transfected COS22 cells in the presence or absence of 10 μM NoxA1ds or SCRMB was evaluated. Relative fluorescence of CFP is green while YFP is red. Traces underneath the images indicate fluorescent intensities of CFP and YFP underneath the arrow overlaid on each cell.

The test system of assay [2] is rat aortic smooth muscle cells. As to the kind of experiment: Calponin and osteopontin expression in stretched rat aortic smooth muscle cells (Western blot). It counts as cell-based. Particulars: 10 μM added every four hours; cyclic stretch 24 hrs. On the procedure:
The effect of Nox1 inhibition on the expression of certain protein markers of rat aortic smooth muscle cell contractile vs. synthetic phenotypes was evaluated. Cells were subjected to 24 hrs of cyclic stretch (10%, 1 Hz) with 10 μM NoxA1ds or SCRMB control being added every four hours. […] Calponin expression during stretch was rescued by the addition of 10 μM NoxA1ds, yet was unaffected by the addition of 10 μM scrambled peptide (SCRMB). A representative Western blot is shown below the graph (FIG. 9B). Osteopontin (OPN, a marker of the […] phenotype), expression increased after 24 hrs of stretch.

Assay [3] concerns human pulmonary artery endothelial cells. Put plainly: Hypoxia-induced superoxide production by human pulmonary artery endothelial cells. The assay is classed as cell-based. On the procedure: Experiments were also performed to evaluate the effect of NoxA1ds on hypoxia-induced superoxide production by human pulmonary artery endothelial cells.
The test system of assay [4] is HT-29 colon adenocarcinoma cells. As to the kind of experiment: O2- production by HT-29 cells (SOD inhibitable reduction of cytochrome c). It counts as cell-based. As to conditions: increasing doses.
In a further assay the test system is Nox1-YFP. As to the kind of experiment: Image cross correlation spectroscopy (ICCS) of R-NoxA1ds and Nox1-YFP. It counts as binding. As to conditions: ICCS, 100 images 0.05 s apart. The protocol:
An ELISA of Nox1:NoxA1ds interaction was performed as follows. Neutravidin coated plates were incubated with biotin-tagged NoxA1ds (Biotin-NoxA1ds) or biotin-tagged SCRMB (Biotin-SCRMB) before addition of cell membranes prepared from cells transfected with Nox1 (Nox1 membrane) or transfected with an empty vector (COS22 membrane). Bound Nox1 was detected through a FITC conjugated secondary antibody (αRabbit Ab Sigma F9887) bound to the Nox1 primary antibody (rabbit αNox1 Ab (SC-25545, Santa Cruz Biotechnology)). FITC fluorescence was expressed as binding as % COS22 membranes on each experimental day. […] To further confirm the association, image cross correlation spectroscopy (ICCS) was used to determine patterns in signal fluctuation between rhodamine-labeled NoxA1ds (R-NoxA1ds) and Nox1-YFP though a sequence of 100 images 0.05 s apart. Correlation and cross-correlation was calculated using an ImageJ plugin.

Ends that are not written are not given here.

For “SCRMB: inactive, scrambled version of NoxA1ds (negative control) (H-LVKGPDAEKVA-NH2) [reference compound]”, the “Inhibition of Nox1-derived O2- production” value with Nox1 is given as “did not inhibit”. The “CFP fluorescence after photobleaching of Nox1-YFP (FRET)” value in assay [1] was “resulted in a concomitant increase in CFP fluorescence”. Further, in assay [2], the “Calponin expression during stretch” value is recorded as “unaffected” and the “Osteopontin (OPN) expression during stretch” value is listed as “unaffected”. In addition, the “O2- production under hypoxia” value in assay [3] (hypoxia 1.0% O2, 24 hrs) is recorded as “unaffected”. Further, the “O2- production under normoxic conditions” value in assay [3] (normoxia) is “negligible effect”. For the same substance, the “Inhibition of O2- production by HT-29 cells” value in assay [4] is “did not inhibit”.
Consider “R-NoxA1ds: rhodamine-labeled NoxA1ds (EPVDALGKAKV-NH2; also: rhodamine label, position not given here)”, for which the “Fractional binding of Nox1-YFP and R-NoxA1ds” value with Nox1-YFP is roughly 1.0.
